In data set [1] the target is T1, hCHT (Homo sapiens, UniProt Q9GZV3).
T1 construct: The hCHT cDNA encodes a protein of 580 amino acids; expressed in transfected cells; host or cells: COS-7 (transient, FuGene 6, pcDNA3)
T1 sequence (Q9GZV3 1-580): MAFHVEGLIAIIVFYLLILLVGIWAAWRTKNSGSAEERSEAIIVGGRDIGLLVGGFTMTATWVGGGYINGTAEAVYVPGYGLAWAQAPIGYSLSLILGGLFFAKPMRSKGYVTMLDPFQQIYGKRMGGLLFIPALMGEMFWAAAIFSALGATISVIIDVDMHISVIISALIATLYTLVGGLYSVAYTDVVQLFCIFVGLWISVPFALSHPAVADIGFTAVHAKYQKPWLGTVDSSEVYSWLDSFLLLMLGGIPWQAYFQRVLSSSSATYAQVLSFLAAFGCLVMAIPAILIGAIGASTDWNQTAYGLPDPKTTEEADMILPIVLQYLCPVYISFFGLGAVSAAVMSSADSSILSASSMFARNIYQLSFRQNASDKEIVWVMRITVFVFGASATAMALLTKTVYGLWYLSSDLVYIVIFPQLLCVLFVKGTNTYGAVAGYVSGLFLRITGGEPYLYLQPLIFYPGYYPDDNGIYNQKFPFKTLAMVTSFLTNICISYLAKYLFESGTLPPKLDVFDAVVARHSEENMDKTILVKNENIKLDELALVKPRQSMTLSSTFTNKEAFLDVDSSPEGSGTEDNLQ
In words: [3H]HC-3 radioligand binding in membrane fractions of hCHT transfected COS-7 cells. The following applies: for Ki: 10 nM [3H]HC-3, hCHT transfected COS-7 cell membranes, read-out: Ki in inhibiting [3H]HC-3 binding. The method, then:
COS-7 cells were transfected with a pcDNA3 vector containing hCHT cDNA using the FuGene 6 transfection reagent (Roche Diagnostics) following the manufacturer's protocols. Briefly, COS-7 cells were cultured in Dulbecco's modified Eagles' medium (DMEM) supplemented with 10% fetal bovine serum (Hyclone), 100 μg/ml of penicillin and streptomycin at a density of 3-4 million cells in 150 mm culture dishes or 5×10^4 cells per well in 24 well dishes (Falcon). After 24 hr, cells were transfected and 48 hr later, the cells were harvested and processed for membrane binding and whole cell or vesicle transport assays.
Monolayers of hCHT transfected COS-7 cells were washed with 30 ml of HTE buffer and harvested in 10 ml of homogenization buffer (0.32 M sucrose in HTE buffer). Cells were homogenized at 20,000 rpm for 25 sec using a Polytron tissue homogenizer (Brinkman). The homogenate was centrifuged at 100,000×g for 45 min at 4° C. The resulting pellet was suspended in 2 ml of HTE buffer, assayed for protein content (Bradford method; BioRad) and 50 μg of the membrane suspension (1 μg/μl) was transferred to each tube in triplicate. Unless otherwise indicated, all binding assays were performed in the presence of 150 mM NaCl in HTE buffer. Assays were initiated by the addition of [^3H]HC-3 (127 Ci per mmol; NEN Life Science Products, 10 nM final concentration). After a 1 hr incubation at room temperature, membranes were rapidly filtered through glass fiber GF/B filters (Brandel) soaked in 0.3% polyethylenimine (Sigma) in HTE buffer and accumulated radioactivity was quantified using liquid scintillation spectrometry (Packard). To test the ion dependence of hCHT binding activity, Na^+ was replaced in the assay buffer with equimolar concentrations of Li^+ whereas Cl^− was replaced with equimolar concentrations of isethionate. Non-specific binding was quantified by measuring [^3H] […] Data for binding and transport assays (see below) were analyzed using nonlinear least squares curve fitting and Scatchard transformations (Kaleidagraph, Abelbeck).

For data set [2], the target named is T1, hCHT. In words: [3H]choline transport in resealed membrane vesicles from hCHT transfected COS-7 cells. The format is biochemical. As for the experimental part: To assay CHT activity in resealed membrane vesicles from hCHT-transfected mammalian cells, the inventors transiently transfected COS-7 cells with hCHT as described herein above and prepared membrane fractions as described for binding assays. After obtaining the membrane fractions, resealed membrane vesicles were prepared as described by Fisher et al., 1992 (Fishe et al., 1992) with slight modifications. The membrane pellets were resuspended in 2 ml of HTE buffer (˜2 μg/μl) and the suspension was rotated gently at 4° C. for 45 min. Membrane vesicle suspensions were centrifuged (27,000×g) for 20 min at 4° C. and the resulting pellet suspended in 2 ml of Na^+ and Cl^− free HTE buffer. Protein content of the suspension was determined (Bradford; BioRad) and 50 μg of the vesicle suspension (1 μg/μl) was transferred to each tube for triplicate assays. […] After a 5 min incubation at room temperature, vesicles were rapidly filtered through Whatman GF/B filters soaked in 0.3% polyethylenimine in HTE buffer and the accumulated radioactivity quantified as described for binding assays. […] In all experiments, non-specific uptake was quantified by determining uptake in the presence of 1 μM HC-3 and subtracted from the total uptake to yield specific transport.

The target in data set [3] is T2, mCHT (Mus musculus, UniProt Q8BGY9, Q119K/Q86H).
T2 construct: expressed in transfected cells; host or cells: COS-7 (transient, pcDNA3)
T2 sequence (Q8BGY9 with tags, fused parts or gaps Q86H/Q119K): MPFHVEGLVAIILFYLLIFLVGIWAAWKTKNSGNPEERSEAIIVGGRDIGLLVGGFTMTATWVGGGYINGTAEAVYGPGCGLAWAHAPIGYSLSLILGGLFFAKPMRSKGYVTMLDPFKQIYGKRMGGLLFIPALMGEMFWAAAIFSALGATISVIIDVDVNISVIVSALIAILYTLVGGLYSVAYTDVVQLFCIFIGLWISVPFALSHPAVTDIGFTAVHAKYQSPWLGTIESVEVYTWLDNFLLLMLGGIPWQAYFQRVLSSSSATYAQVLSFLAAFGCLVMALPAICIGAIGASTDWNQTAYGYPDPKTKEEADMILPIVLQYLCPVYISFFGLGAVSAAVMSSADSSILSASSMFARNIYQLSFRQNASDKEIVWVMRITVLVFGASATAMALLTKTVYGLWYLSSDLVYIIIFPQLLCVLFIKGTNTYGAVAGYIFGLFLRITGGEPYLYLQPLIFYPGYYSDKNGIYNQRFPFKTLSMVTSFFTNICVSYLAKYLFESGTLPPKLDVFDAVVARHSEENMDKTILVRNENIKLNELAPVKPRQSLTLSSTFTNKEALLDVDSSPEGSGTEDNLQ
The data set can be described thus: [3H]HC-3 binding in membrane fractions of mCHT transfected COS-7 cells. To be noted: for Ki: mCHT transfected COS-7 cell membrane, read-out: Ki in inhibiting [3H]HC-3 binding.

Data set [4] has as its target T2, mCHT. The data set can be described thus: choline uptake in resealed membrane vesicles from mCHT transfected COS-7 cells. The format is biochemical. The following applies: for IC50: resealed membrane vesicles, mCHT.
Substrate in data set [5]: C[N+](C)(C)CCO
The data set can be described thus: cells, lysate or membranes named.

Read-outs that look alike come from different tables or passages of the source.

`CC(=O)OCC[N+](C)(C)C` [ACh, acetylcholine]: the values for the Ki in data set [1] (ACh in the presence of 10 μM physostigmine), in data set [2] and in data set [3] (ACh in the presence of physostigmine) were 433000 nM, 570 nM and 433000 nM, respectively.

`C[N+]1(C)CCOC(O)(c2ccc(-c3ccc(C4(O)C[N+](C)(C)CCO4)cc3)cc2)C1.[Br-].[Br-]` (stereo not drawn) [HC-3, hemicholinium-3]: the Ki (in general, a measure of affinity in units of concentration, obtained from inhibition or displacement) in data set [1] came to 4 nM; in data set [2] (read-out: Ki for inhibition of [3H]choline uptake, resealed membrane vesicles, hCHT, 20 nM [3H]choline), 5 nM; in data set [3], 5 nM. Also, in data set [1] (single site kinetics), the “Hill coefficient of [3H]HC-3 binding” value was determined as 0.99. The “effect of addition of HC-3 on [3H]choline uptake” value in data set [2] (hCHT vesicles against vector transfected controls, data not shown) is “reduced [^3H]choline uptake to levels seen in vector transfected COS-7 membrane vesicles”. Besides, the “effect on choline uptake” value in data set [4] (1 μM HC-3, mCHT vesicles against vector transfected) is given as “reduced choline uptake to levels seen in vector transfected COS-7 membrane vesicles”. Besides, the IC50 (usually the concentration at which inhibition is half-maximal) in data set [4] (read-out: IC50 for inhibition of mCHT-mediated choline uptake) came to 5 nM. Besides, the Kd (commonly the equilibrium constant for the complex coming apart) in data set [3] (Scatchard transformation, mCHT expressing membranes, read-out: equilibrium dissociation constant (Kd) of [3H]HC-3 binding) was determined as 5 nM.

In the case of `C[N+](C)(C)CCO` [choline], in data set [2], the Ki is 123 nM. The molecule also showed an IC50 in data set [4] of 123 nM.

B1: mCHT (Mus musculus; Q119K/Q86H) (protein)
chain: T2 sequence (Q8BGY9 with tags, fused parts or gaps Q86H/Q119K)
On to B1, for which, in data set [5] (other: Eadie-Hofstee plot, single site, mCHT vesicles), the Km (in general, the concentration of substrate that gives half-maximal velocity) turned out to be 2 µM.

B2: hCHT (Homo sapiens) (protein)
chain: T1 sequence (Q9GZV3 1-580)
As to B2, the Km in data set [5] (other: resealed membrane vesicles, hCHT) stood at 1.6 µM.

(Values after US7338799B2 (Vanderbilt University, priority 2001, dated 2008).)
